Values after ≈ are worked out from the molar mass of the structure shown.
Experiments:
[1] = target: T1, β-lactamase, Proteus vulgaris GN 76 (Proteus vulgaris, UniProt P52664); experiment: Resistant activity against β-lactamase, iodometric assay; type: biochemical; settings: control Cephalorizine = 100
T1 construct: By using the supernatant of enzyme fluid; endogenous in cells; host or cells: Proteus vulgaris GN 76 (penicillin G-induced cells, sonicated, 15,000 r.p.m. supernatant)
Description: (§1) (4) Resistant activity of each cephalosporin compound against β-lactamase, Proteus vulgaris GN 76 and Escherichia freundii GN 346:
(§2) The resistant activity of each cephalosporin compound against β-lactamase was measured in the manner described below.
(§3) β-lactamase was prepared from Proteus vulgaris GN 76 and Escherichia freundii GN 346. 10 ml of an overnight culture in Heart Infusion broth was diluted with 100 ml of a medium containing 2 g of yeast extract, 10 g of polypeptone, 2 g of glucose, 7 g of disodium hydrogen phosphate, 2 g of potassium dihydrogen phosphate, 1.2 g of ammonium sulfate and 0.4 g of magnesium sulfate, per liter, and incubated with shaking at 37° C. After incubation of 2 hrs, Penicillin G (50 μg/ml) was added as the inducer, and further incubated for 2 hrs. The resulting cells were collected by centrifugation (5,000 r.p.m.×10 min.) and washed two times with 0.1 M phosphate buffer (pH 7.0). Subsequently, the cells were subjected to sonication (20 KHz, 5 min.) and then centrifuged at 15,000 r.p.m. for 60 min. By using the supernatant of enzyme fluid, the stability of each compound against β-lactamase was determined by the iodometric assay method. Each numeral shown in Table 7-2 is a relative activity value calculated by assuming as 100 the activity of the control Cephalorizine.

[2] = target: β-lactamase, Escherichia freundii GN 346 (Citrobacter freundii, UniProt Q46041); experiment: as above; type: biochemical; settings: control Cephalorizine = 100
Description: as §1, §2, §3

Pseudomonas aeruginosa = experiment: MIC against clinical isolates; type: cell-based; settings: unit assumed
[3] = system: Pseudomonas aeruginosa I.F.O.; experiment: MIC, plate method, standard strains; type: cell-based; settings: unit assumed
Description: (§4) The minimum inhibitory concentration (MIC) was determined by the plate method disclosed in "Chemotherapy" (Japan), Vol. 16, (1968), pages 98-99. The culture medium used was a Heart infusion agar (pH 7.4). The number of the cells per plate used in the inoculum was 10^4 (10^6 cells/ml).

Proteus vulgaris 3027 = experiment: MIC, plate method, standard strains; type: cell-based; settings: unit assumed
Description: as §4

[4] = system: Staphylococcus aureus 209p; experiment: MIC, plate method, standard strains; type: cell-based; settings: unit assumed
Description: as §4

Escherichia coli NIHJ = experiment: MIC, plate method, standard strains; type: cell-based; settings: unit assumed
Description: as §4

Klebsiella pneumoniae [5] = experiment: MIC, plate method, standard strains; type: cell-based; settings: unit assumed
Description: as §4

[6] = system: β-lactamase, Pseudomonas aeruginosa GN 238; experiment: Resistant activity against β-lactamase, iodometric assay; type: biochemical; settings: β-lactamase from Pseudomonas aeruginosa GN 238; Potassium Penicillin G = 100
Description: (3) Resistant activity against β-lactamase, Pseudomonas aerugionsa GN 238:
The resistant activity of each compound against β-lactamase was measured in the manner described below.
β-Lactamase was prepared from Pseudomonas aeruginosa GN 238. This microorganism was cultured in 100 ml of a medium containing 2 g of yeast extract, 10 g of polypeptone, 2 g of glucose, 7 g of disodium hydrogen phosphate, 2 g of potassium dihydrogen phosphate, 1.2 g of ammonium sulfate and 0.4 g of magnesium sulfate, per liter, in a 500-ml Erlenmeyer flask for 6 hrs. at 37° C. with shaking. The resulting cells were collected by centrifugation (5,000 r.p.m.×10 min.), washed three times with 0.1 M phosphate buffer (pH 7.0). Subsequently, the cells were subjected to sonication (20 KHz, 20 min.) and then centrifuged at 15,000 r.p.m. for 60 min. By using the supernatant of enzyme fluid, the resistance of each compound against β-lactamase was determined by the iodometric assay method. Each numeral shown in Table 7 is a relative activity value calculated by assuming as 100 the activity of the control Potassium Penicillin G.

Shigella sonnei = experiment: MIC against clinical isolates; type: cell-based; settings: Table 5-5, clinical isolate; unit assumed
Description: as §4
(§5) MIC was determined in the same manner as in the preceding paragraph (1).

Shigella flexneri = experiment: MIC against clinical isolates; type: cell-based; settings: Table 5-5, clinical isolate; unit assumed
Description: as §4, §5

Klebsiella pneumoniae [7] = experiment: MIC against clinical isolates; type: cell-based; settings: Table 5-4, clinical isolate; unit assumed
Staphylococcus aureus = experiment: MIC against clinical isolates; type: cell-based; settings: Table 5-1, clinical isolate; unit assumed
Escherichia coli = experiment: MIC against clinical isolates; type: cell-based; settings: Table 5-2, clinical isolate; unit assumed

T1 sequence (P52664 30-300): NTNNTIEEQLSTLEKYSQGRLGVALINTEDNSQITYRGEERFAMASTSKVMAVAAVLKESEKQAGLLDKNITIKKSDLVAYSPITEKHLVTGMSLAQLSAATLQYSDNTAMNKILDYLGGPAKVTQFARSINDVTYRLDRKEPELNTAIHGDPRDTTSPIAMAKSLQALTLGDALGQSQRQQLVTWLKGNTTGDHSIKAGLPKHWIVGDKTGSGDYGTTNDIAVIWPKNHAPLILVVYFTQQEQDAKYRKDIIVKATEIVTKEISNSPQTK
Chain of β-lactamase, Escherichia freundii GN 346 (Q46041 entry or part of it): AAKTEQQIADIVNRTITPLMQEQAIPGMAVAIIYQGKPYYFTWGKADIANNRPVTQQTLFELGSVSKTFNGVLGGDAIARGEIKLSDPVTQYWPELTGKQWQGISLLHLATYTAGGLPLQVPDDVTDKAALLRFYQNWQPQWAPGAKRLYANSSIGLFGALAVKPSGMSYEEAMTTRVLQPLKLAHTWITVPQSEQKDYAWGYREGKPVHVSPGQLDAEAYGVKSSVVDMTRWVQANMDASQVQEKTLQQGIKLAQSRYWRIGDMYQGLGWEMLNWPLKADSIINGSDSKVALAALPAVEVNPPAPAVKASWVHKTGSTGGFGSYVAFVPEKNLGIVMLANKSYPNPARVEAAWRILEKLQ

**Q.** For CN1CCN(C(=O)NC(C(=O)NC2C(=O)N3C(C(=O)O)=C(CSc4nnnn4C)CSC23)c2ccccc2)C(=O)C1=O (single isomer, unassigned) [Compound No. 63], which “Relative activity (%) against β-lactamase, Pr. vulgaris GN 76” value (“Relative activity (%) … Pr. vulgaris GN 76” for short) [1] is on record?
**A.** 6%

**Q.** And the “Relative activity (%) against β-lactamase, E. freundii GN 346” value (“Relative activity (%) … E. freundii GN 346” for short) [2]?
**A.** 0.2%

**Q.** What about the MIC Pseudomonas aeruginosa GN4 (Pseudomonas aeruginosa; Table 6-3, clinical isolate) of the same molecule?
**A.** 25 µg/mL (≈ 40.6 µM)

**Q.** What about the MIC Pseudomonas aeruginosa GN 82 (Pseudomonas aeruginosa; Table 6-3, clinical isolate) of the same molecule?
**A.** 50 µg/mL (≈ 81.2 µM)

**Q.** And the MIC Pseudomonas aeruginosa GN 376 (Pseudomonas aeruginosa; Table 6-3, clinical isolate)?
**A.** 50 µg/mL (≈ 81.2 µM)

**Q.** And the MIC Pseudomonas aeruginosa GN 2565 (Pseudomonas aeruginosa; Table 6-3, clinical isolate)?
**A.** 50 µg/mL (≈ 81.2 µM)

**Q.** CCN1CCN(C(=O)NC(C(=O)NC2C(=O)N3C(C(=O)O)=C(CSc4nnc(C)s4)CSC23)c2ccc(O)cc2)C(=O)C1=O (single isomer, unassigned) [Compound No. 76] was tested. Which “Relative activity (%) … Pr. vulgaris GN 76” value [1] did it give?
**A.** 11%

**Q.** What about the “Relative activity (%) … E. freundii GN 346” value [2] of the same molecule?
**A.** 1%

**Q.** What about the MIC Pseudomonas aeruginosa I.F.O. ([3]; Table 4, standard strain) of the same molecule?
**A.** 50 µg/mL (≈ 75.6 µM)

**Q.** What about the MIC Proteus vulgaris 3027 (Proteus vulgaris 3027; Table 4, standard strain) of the same molecule?
**A.** 3.13 µg/mL (≈ 4.73 µM)

**Q.** What about the MIC Staphylococcus aureus 209p ([4]; Table 4, standard strain) of the same molecule?
**A.** 1.57 µg/mL (≈ 2.37 µM)

**Q.** What about the MIC Escherichia coli NIHJ (Escherichia coli NIHJ; Table 4, standard strain) of the same molecule?
**A.** < 0.4 µg/mL

**Q.** What about the MIC Klebsiella pneumoniae (Klebsiella pneumoniae [5]; Table 4, standard strain) of the same molecule?
**A.** 0.79 µg/mL (≈ 1.19 µM)

**Q.** O=C(Cc1cccs1)N[C@@H]1C(=O)N2C(C(=O)[O-])=C(C[n+]3ccccc3)CS[C@H]12 [Cephalorizine, reference compound] was tested. Which “Relative activity (%) … Pr. vulgaris GN 76” value [1] did it give?
**A.** 100%

**Q.** What about the “Relative activity (%) … E. freundii GN 346” value [2] of the same molecule?
**A.** 100%

**Q.** What about the MIC Pseudomonas aeruginosa GN4 (Pseudomonas aeruginosa; Table 6-3, clinical isolate) of the same molecule?
**A.** > 200 µg/mL

**Q.** What about the MIC Pseudomonas aeruginosa GN 82 (Pseudomonas aeruginosa; Table 6-3, clinical isolate) of the same molecule?
**A.** > 200 µg/mL

**Q.** And the MIC Pseudomonas aeruginosa GN 163 (Pseudomonas aeruginosa; Table 6-3, clinical isolate)?
**A.** > 200 µg/mL

**Q.** And the MIC Pseudomonas aeruginosa GN 221 (Pseudomonas aeruginosa; Table 6-3, clinical isolate)?
**A.** > 200 µg/mL

**Q.** And the MIC Pseudomonas aeruginosa GN 376 (Pseudomonas aeruginosa; Table 6-3, clinical isolate)?
**A.** > 200 µg/mL

**Q.** And the MIC Pseudomonas aeruginosa GN 1035 (Pseudomonas aeruginosa; Table 6-3, clinical isolate)?
**A.** > 200 µg/mL

**Q.** What about the MIC Pseudomonas aeruginosa GN 1091 (Pseudomonas aeruginosa; Table 6-3, clinical isolate) of the same molecule?
**A.** > 200 µg/mL

**Q.** And the MIC Pseudomonas aeruginosa GN 2565 (Pseudomonas aeruginosa; Table 6-3, clinical isolate)?
**A.** > 200 µg/mL

**Q.** What about the MIC Pseudomonas aeruginosa GN 2987 (Pseudomonas aeruginosa; Table 6-3, clinical isolate) of the same molecule?
**A.** > 200 µg/mL

**Q.** What about the MIC Pseudomonas aeruginosa S-2 (Pseudomonas aeruginosa; Table 6-4, clinical isolate) of the same molecule?
**A.** > 200 µg/mL

**Q.** And the MIC Pseudomonas aeruginosa S-3 (Pseudomonas aeruginosa; Table 6-4, clinical isolate)?
**A.** > 200 µg/mL

**Q.** And the MIC Pseudomonas aeruginosa S-4 (Pseudomonas aeruginosa; Table 6-4, clinical isolate)?
**A.** > 200 µg/mL

**Q.** For CCCCCCCCN1CCN(C(=O)N[C@@H](C(=O)N[C@@H]2C(=O)N3[C@@H]2SC(C)(C)[C@@H]3C(=O)O)c2ccccc2)CC1=O [Compound 30], which “Relative activity (%), resistant activity against β-lactamase” value [6] is on record?
**A.** 3%

**Q.** With CCN1CCN(C(=O)N[C@@H](C(=O)N[C@@H]2C(=O)N3[C@@H]2SC(C)(C)[C@@H]3C(=O)O)c2ccccc2)C(=O)C1=O [Compound 36] as the molecule, how does the MIC Shigella sonnei JS 11232 (Shigella sonnei) read?
**A.** 50 µg/mL (≈ 96.6 µM)

**Q.** What about the MIC Shigella sonnei JS 11755 (Shigella sonnei) of the same molecule?
**A.** 3.13 µg/mL (≈ 6.05 µM)

**Q.** What about the MIC Shigella flexneri JS 11215 (Shigella flexneri) of the same molecule?
**A.** 100 µg/mL (≈ 193 µM)

**Q.** What about the MIC Shigella flexneri JS 11839 (Shigella flexneri) of the same molecule?
**A.** 3.13 µg/mL (≈ 6.05 µM)

**Q.** And the “Relative activity (%), resistant activity against β-lactamase” value [6]?
**A.** 14%

**Q.** And the MIC Pseudomonas aeruginosa I.F.C ([3]; Table 3, standard strain)?
**A.** 6.25 µg/mL (≈ 12.1 µM)

**Q.** What about the MIC Proteus vulgaris 3027 (Proteus vulgaris 3027; Table 3, standard strain) of the same molecule?
**A.** < 1.57 µg/mL

**Q.** What about the MIC Staphylococcus aureus 209p ([4]; Table 3, standard strain, Heart infusion agar pH 7.4) of the same molecule?
**A.** < 1.57 µg/mL

**Q.** What about the MIC Esche--richin coil NIHJ (Escherichia coli NIHJ; Table 3, standard strain) of the same molecule?
**A.** < 1.57 µg/mL

**Q.** What about the MIC Klebsiella pneumoniae (Klebsiella pneumoniae [5]; Table 3, standard strain) of the same molecule?
**A.** < 1.57 µg/mL

**Q.** And the MIC Klebsiella pneumoniae GN 917 (Klebsiella pneumoniae [7])?
**A.** 6.25 µg/mL (≈ 12.1 µM)

**Q.** What about the MIC Staphylococcus aureus F-2 (Staphylococcus aureus) of the same molecule?
**A.** 3.13 µg/mL (≈ 6.05 µM)

**Q.** And the MIC Staphylococcus aureus F-3 (Staphylococcus aureus)?
**A.** 1.57 µg/mL (≈ 3.03 µM)

**Q.** And the MIC Staphylococcus aureus F-4 (Staphylococcus aureus)?
**A.** 6.25 µg/mL (≈ 12.1 µM)

**Q.** What about the MIC Staphylococcus aureus MS 8588 (Staphylococcus aureus) of the same molecule?
**A.** 3.13 µg/mL (≈ 6.05 µM)

**Q.** And the MIC Staphylococcus aureus MS 8596 (Staphylococcus aureus)?
**A.** 3.13 µg/mL (≈ 6.05 µM)

**Q.** And the MIC Staphylococcus aureus MS 8684 (Staphylococcus aureus)?
**A.** 3.13 µg/mL (≈ 6.05 µM)

**Q.** What about the MIC Staphylococcus aureus MS 8713 (Staphylococcus aureus) of the same molecule?
**A.** 6.25 µg/mL (≈ 12.1 µM)

**Q.** What about the MIC Pseudomonas aeruginosa GN 82 (Pseudomonas aeruginosa; Table 5-3, clinical isolate) of the same molecule?
**A.** 6.25 µg/mL (≈ 12.1 µM)

**Q.** What about the MIC Pseudomonas aeruginosa GN 163 (Pseudomonas aeruginosa; Table 5-3, clinical isolate) of the same molecule?
**A.** 6.25 µg/mL (≈ 12.1 µM)

**Q.** And the MIC Pseudomonas aeruginosa GN 221 (Pseudomonas aeruginosa; Table 5-3, clinical isolate)?
**A.** 3.13 µg/mL (≈ 6.05 µM)

**Q.** And the MIC Pseudomonas aeruginosa GN 376 (Pseudomonas aeruginosa; Table 5-3, clinical isolate)?
**A.** 6.25 µg/mL (≈ 12.1 µM)

**Q.** What about the MIC Pseudomonas aeruginosa GN 383 (Pseudomonas aeruginosa; Table 5-3, clinical isolate) of the same molecule?
**A.** 6.25 µg/mL (≈ 12.1 µM)

**Q.** What about the MIC Pseudomonas aeruginosa GN 1091 (Pseudomonas aeruginosa; Table 5-3, clinical isolate) of the same molecule?
**A.** 6.25 µg/mL (≈ 12.1 µM)

**Q.** What about the MIC Escherichia coli GN 3435 (Escherichia coli) of the same molecule?
**A.** 1.57 µg/mL (≈ 3.03 µM)

**Q.** And the MIC Escherichia coli GN 3452 (Escherichia coli)?
**A.** 3.13 µg/mL (≈ 6.05 µM)

**Q.** What about the MIC Escherichia coli GN 3481 (Escherichia coli) of the same molecule?
**A.** 3.13 µg/mL (≈ 6.05 µM)

**Q.** And the MIC Escherichia coli K-1 (Escherichia coli)?
**A.** 3.13 µg/mL (≈ 6.05 µM)

**Q.** What about the MIC Escherichia coli K-2 (Escherichia coli) of the same molecule?
**A.** 3.13 µg/mL (≈ 6.05 µM)

**Q.** What about the MIC Escherichia coli K-4 (Escherichia coli) of the same molecule?
**A.** 1.57 µg/mL (≈ 3.03 µM)

**Q.** Which results are given for CCN1CCN(C(=O)NC(C(=O)NC2C(=O)N3C(C(=O)O)=C(CSc4nnnn4C)CSC23)c2ccccc2)C(=O)C1=O (stereo not shown) [Compound No. 69]?
**A.** Relative activity (%) against β-lactamase, Pr. vulgaris GN 76 [1]: 4%; Relative activity (%) against β-lactamase, E. freundii GN 346 [2]: 0.1%; MIC Pseudomonas aeruginosa GN4 (Pseudomonas aeruginosa; Table 6-3, clinical isolate): 25 µg/mL (≈ 39.7 µM)
